Source: patent US5135947A, “1-phenyl-3-naphthalenyloxypropanamines and their use as selective serotonin reuptake inhibitors” (Eli Lilly and Company, priority 1990, dated 1992)
Structures can show the parent of a compound that is named as a salt.

The compounds below were run on 5HT uptake (assay: Inhibition of 5HT uptake in vitro (synaptosomal uptake of 3H-serotonin, rat cortical synaptosomes)). Details: 50 nM 3H-5HT, cortical synaptosomes, 37° C., 5 min.
Assay type: biochemical, rat (male Sprague-Dawley)
Procedure: This general procedure is set forth by Wong et al., in Drug Development Research 6:397-403 (1985).
Male Sprague-Dawley rats (110-150 g) from Harlan Industries (Cumberland, Ind.) were fed Purina Chow ad libitum for at least 3 days before being used in the studies. Rats were killed by decapitation. Whole brains were removed and dissected. Cerebral cortex was homogenized in 9 volumes of a medium containing 0.32M sucrose and 10 mM glucose. Crude synaptosomal preparations were isolated after differential centrifugation at 1,000 g for 10 min. and 17,000 g for 28 min. The final pellets were suspended in the same medium and kept in ice until use within the same day.
Synaptosomal uptake of ^3 H-serotonin(^3 H-5-hydroxytryptamine, ^3 H-5HT) was determined as follows. Cortical synaptosomes (equivalent to 1 mg of protein) were incubated at 37° C. for 5 min in 1 ml of Krebs-bicarbonate medium containing also 10 mM glucose, 0.1 mM iproniazid, 1 mM ascorbic acid, 0.17 mM EDTA and 50 nM ^3 H-5HT The reaction mixture was immediately diluted with 2 ml of ice-chilled Krebs-bicarbonatebuffer and filtered under vacuum with a cell harvester (Brandel, Gaithersburg, Md.). Filters were rinsed twice with approximately 5 ml of ice-chilled 0.9% saline and were transferred to a counting vial containing 10 ml of scintillation fluid (PCS, Amersham, Arlington Heights, Ill.). Radioactivity was measured by a liquid scintillation spectrophotometer. Accumulation of ^3 H-5HT at 4° C. represented the background and was subtracted from all samples.
The numbers in parentheses represent percent inhibition at 1000 nM.

Q: For `COc1cccc(C(N)CCOc2cccc3ccccc23)c1` (stereo not shown) [Example 18, 1-(3-Methoxyphenyl)-3-(1-naphthalenyloxy)propanamine hydrochloride], which IC50 is on record?
A: 84 nM

Q: Which IC50 does the source give for `CN(C)C(CCOc1cccc2ccccc12)c1cccc(C(F)(F)F)c1` (stereo not shown) [Example 9, N,N-Dimethyl-1-[3-(trifluoromethyl)phenyl]-3-(1-naphthalenyloxy)propanamineoxlate] here?
A: 500 nM

Q: Which IC50 does the source give for `COc1ccc(C(CCOc2cccc3ccccc23)N(C)C)cc1` (stereo not shown) [Example 17, N,N-Dimethyl-1-(4-methoxyphenyl)-3-(1-naphthalenyloxy)propanamine oxalate] here?
A: 32 nM

Q: How did the IC50 turn out when `Cc1ccc(OCCC(N)c2ccccc2)c2ccccc12` (stereo not shown) [Example 1, 1-Phenyl-3-(4-methyl-1-naphthalenyloxy)propanamine oxalate] was run?
A: 90 nM

Q: With `COc1ccccc1C(CCOc1cccc2ccccc12)N(C)C` (stereo not shown) [Example 21, N,N-Dimethyl-1-(2-methoxyphenyl)-3-(1-naphthalenyloxy)propanamine oxalate] as the compound, how does the IC50 read?
A: 16 nM

Q: How did the IC50 turn out when `Cc1ccc(OCCC(c2ccccc2)N(C)C)c2ccccc12` (stereo not shown) [Example 2, N,N-Dimethyl-1-phenyl-3-(4-methyl-1-naphthalenyloxy)propanamine oxalate] was run?
A: 25 nM

Q: With `CN(C)C(CCOc1cccc2ccccc12)c1ccc(Cl)cc1` (stereo not shown) [Example 15, N,N-Dimethyl-1-(4-chlorophenyl)-3-(1-naphthalenyloxy)propanamine oxalate] as the compound, how does the IC50 read?
A: 110 nM

Q: For `CNC(CCOc1ccc(C)c2ccccc12)c1ccccc1` (stereo not shown) [Example 3, N-Methyl-1-phenyl-3-(4-methyl-1-naphthalenyloxy)propanamine oxalate], which IC50 is on record?
A: 37 nM

Q: `CN(C)C(CCOc1cccc2ccccc12)c1ccccc1` (stereo not shown) [Example 27, N,N-Dimethyl-1-phenyl-3-(1-naphthalenyloxy)propanamine oxalate] was tested. Which IC50 did it give?
A: 10 nM

Q: Which IC50 does the source give for `NC(CCOc1cccc2ccccc12)c1ccccc1` (stereo not shown) [Example 35, 1-Phenyl-3-(1-naphthalenyloxy)propanamine oxalate] here?
A: 80 nM

Q: For `CNC(CCOc1cccc2ccccc12)c1ccccc1` (stereo not shown) [Example 33, N-Methyl-1-phenyl-3-(1-naphthalenyloxy)propanamine oxalate], which IC50 is on record?
A: 35 nM

Q: How did the IC50 turn out when `COc1cccc(C(CCOc2cccc3ccccc23)N(C)C)c1` (stereo not shown) [Example 19, N,N-Dimethyl-1-(3-methoxyphenyl)-3-(1-naphthalenyloxy)propanamine oxalate] was run?
A: 29 nM

Q: How did the IC50 turn out when `Cc1cccc(C(CCOc2cccc3ccccc23)N(C)C)c1` (stereo not shown) [Example 32, N,N-Dimethyl-1-(3-methylphenyl)-3-(1-naphthalenyloxy)propanamine oxalate] was run?
A: 13 nM

Q: With `CN(C)C(CCOc1cccc2ccccc12)c1ccc(F)cc1` (stereo not shown) [Example 25, N,N-Dimethyl-1-(4-fluorophenyl)-3-(1-naphthalenyloxy)propanamine oxalate] as the compound, how does the IC50 read?
A: 50 nM

Q: For `CN(C)C(CCOc1ccc(Cl)c2ccccc12)c1ccccc1` (stereo not shown) [Example 34, N,N-Dimethyl-1-phenyl-3-(4-chloro-1-naphthalenyloxy)propanamine oxalate], which IC50 is on record?
A: 88 nM

Q: With `COc1ccc(OCCC(c2ccccc2)N(C)C)c2ccccc12` (stereo not shown) [Example 5, N,N-Dimethyl-1-phenyl-3-(4-methoxy-1-naphthalenyloxy)propanamine oxalate] as the compound, how does the IC50 read?
A: 210 nM

Q: With `Cc1ccccc1C(CCOc1cccc2ccccc12)N(C)C` (stereo not shown) [Example 30, N,N-Dimethyl-1-(2-methylphenyl)-3-(1-naphthalenyloxy)propanamine oxalate] as the compound, how does the IC50 read?
A: 10 nM

Q: `CN(C)C(CCOc1cccc2ccccc12)c1ccccc1` (single isomer, unassigned) [Example 37, (-)-N,N-Dimethyl-1-phenyl-3-(1-naphthalenyloxy)propanamine (-)-tartrate] was tested. Which IC50 did it give?
A: 35 nM

Q: With `CN(C)C(CCOc1cccc2ccccc12)c1ccccc1C(F)(F)F` (stereo not shown) [Example 7, N,N-Dimethyl-1-[2-(trifluoromethyl)phenyl]-3-(1-naphthalenyloxy)propanamineoxalate] as the compound, how does the IC50 read?
A: 260 nM

Q: Which IC50 does the source give for `COc1ccc(C(N)CCOc2cccc3ccccc23)cc1` (stereo not shown) [Example 16, 1-(4-Methoxyphenyl)-3-(1-naphthalenyloxy)propanamine oxalate] here?
A: 100 nM

Q: For `NC(CCOc1cccc2ccccc12)c1cccc(Cl)c1` (stereo not shown) [Example 12, 1-(3-Chlorophenyl)-3-(1-naphthalenyloxy)propanamine oxalate], which IC50 is on record?
A: 150 nM

Q: For `Cc1ccc(C(CCOc2cccc3ccccc23)N(C)C)cc1` (stereo not shown) [Example 26, N,N-Dimethyl-1-(4-methylphenyl)-3-(1-naphthalenyloxy)propanamine oxalate], which IC50 is on record?
A: 80 nM

Q: For `NC(CCOc1cccc2ccccc12)c1ccc(Cl)cc1` (stereo not shown) [Example 14, 1-(4-Chlorophenyl)-3-(1-naphthalenyloxy)propanamine oxalate], which IC50 is on record?
A: 400 nM

Q: Which IC50 does the source give for `CN(C)C(CCOc1ccc(C(F)(F)F)c2ccccc12)c1ccccc1` (stereo not shown) [Example 29, N,N-Dimethyl-1-phenyl-3-[4-(trifluoromethyl)-1-naphthalenyloxy)propanamine oxalate] here?
A: 800 nM

Q: With `NC(CCOc1cccc2ccccc12)c1ccccc1Cl` (stereo not shown) [Example 10, 1-(2-Chlorophenyl)-3-(1-naphthalenyloxy)propanamine oxalate] as the compound, how does the IC50 read?
A: 76 nM

Q: Which IC50 does the source give for `NC(CCOc1cccc2ccccc12)c1ccccc1C(F)(F)F` (stereo not shown) [Example 6, 1-[2-(Trifluoromethyl)phenyl]-3-(1-naphthalenyloxy)propanamine oxalate] here?
A: 180 nM

Q: With `CN(C)C(CCOc1cccc2ccccc12)c1ccccc1` (single isomer, unassigned) [Example 36, (+)-N,N-Dimethyl-1-phenyl-3-(1-naphthalenyloxy)propanamine (+)-tartrate] as the compound, how does the IC50 read?
A: 10 nM

Q: With `CN(C)C(CCOc1cccc2ccccc12)c1cccc(Cl)c1` (stereo not shown) [Example 13, N,N-Dimethyl-1-(3-chlorophenyl)-3-(1-naphthalenyloxy)propanamine oxalate] as the compound, how does the IC50 read?
A: 72 nM

Q: With `CN(C)C(CCOc1cccc2ccccc12)c1ccc(C(F)(F)F)cc1` (stereo not shown) [Example 31, N,N-Dimethyl-1-[4-(trifluoromethyl)phenyl]-3-(1-naphthalenyloxy)propanamineoxalate] as the compound, how does the IC50 read?
A: 195 nM

Q: For `CNC(CCOc1cccc2ccccc12)c1ccc2c(c1)OCO2` (stereo not shown) [Example 24, oxalate], which IC50 is on record?
A: 47 nM

Q: `CN(C)C(CCOc1cccc2ccccc12)c1ccccc1Cl` (stereo not shown) [Example 11, N,N-Dimethyl-1-(2-chlorophenyl)-3-(1-naphthalenyloxy)propanamine oxalate] was tested. Which IC50 did it give?
A: 33 nM

Same assay, conditions: at 1000 nM; numbers in parentheses; 50 nM 3H-5HT, 37° C., 5 min

Q: How did the “percent inhibition at 1000 nM” value turn out when `COc1ccccc1C(N)CCOc1cccc2ccccc12` (stereo not shown) [Example 20, 1-(2-Methoxyphenyl)-3-(1-naphthalenyloxy)propanamine oxalate] was run?
A: 25%

Q: `COc1ccc(OCCC(N)c2ccccc2)c2ccccc12` (stereo not shown) [Example 4, 1-Phenyl-3-(4-methoxy-1-naphthalenyloxy)propanamine oxalate] was tested. Which “percent inhibition at 1000 nM” value did it give?
A: 39%

Q: How did the “percent inhibition at 1000 nM” value turn out when `NC(CCOc1cccc2ccccc12)c1cccc(C(F)(F)F)c1` (stereo not shown) [Example 8, 1-[3-(Trifluoromethyl)phenyl]-3-(1-naphthalenyloxy)propanamine oxalate] was run?
A: 43%
